From article PMC6993142 (Journal of natural products, 2017)

How the values were obtained:
[1] = MTS dye cytotoxicity assay, normal HFF cells; format: cell-based; conditions: human, HFF cells (normal foreskin fibroblasts)
[2] = MTS dye cytotoxicity assay, whole panel; format: cell-based; conditions: human
[3] = test system: LNCaP (androgen-sensitive human prostate adenocarcinoma); assay: MTS dye cytotoxicity assay, LNCaP; format: cell-based; conditions: for IC50: Homo sapiens, LNCaP, 72 h, read-out: Cytotoxicity IC50, LNCaP, LNCaP, 72 h, MTS
[4] = test system: A549, Hep G2, Hep 3B, MCF-7 and MDA-MB-231 cell lines; conditions: MCF-7, MDA-MB-231, ref 11f; cited from earlier work
[5] = test system: MCF-7, MDA-MB-231, H1299, Ca9–22 and HT-29 cells; conditions: MCF-7, MDA-MB-231, H1299, Ca9–22, HT-29; ref 11j, 11h, 11k, 11n; cited from earlier work
[6] = test system: ACHN (human renal adenocarcinoma); assay: MTS dye cytotoxicity assay, ACHN; format: cell-based; conditions: of the 26 withanolides tested
[7] = test system: RC cells (ACHN, Caki-1, and SN-12-C); conditions: in the presence of TRAIL; cited from earlier work
[8] = test system: LNCaP (androgen-sensitive human prostate adenocarcinoma); conditions: previously shown; cited from earlier work

Compound: CC1=C(C)[C@H](O)[C@H]([C@](C)(O)[C@]2(O)CC[C@@]3(O)[C@@H]4C[C@H]5O[C@]56CC=CC(=O)[C@]6(C)[C@H]4CC[C@]23C)OC1=O [Compound 6, (20S,22R)-5β,6β-epoxy-14α,17β,20,23β-tetrahydroxy-1-oxowitha-2,24-dienolide]
- IC50 at 72 h [1]: > 2000 nM

Compound: CC1=C(C)C(=O)O[C@@H]([C@](C)(O)C2=CC[C@@]3(O)[C@@H]4C[C@H]5O[C@]56CC=CC(=O)[C@]6(C)[C@H]4CC[C@]23C)C1 [Compound 7, (20S,22R)-5β,6β-epoxy-14α,20-dihydroxy-1-oxowitha-2,16,24-trienolide]
- IC50 at 72 h [2]: > 5000 nM

Compound: CC1=C(C)C(=O)O[C@@H]([C@](C)(O)[C@]2(O)CC[C@@]3(O)[C@@H]4[C@@H](O)C=C5CC=CC(=O)[C@]5(C)[C@H]4CC[C@]23C)C1 [Compound 8, (20S,22R)-7β,14α,17β,20-tetrahydroxy-1-oxowitha-2,5,24-trienolide]
- IC50 [3]: < 2000 nM
- IC50 at 72 h [1]: > 2000 nM

Compound: CC1=C(C)C(=O)O[C@@H]([C@](C)(O)[C@]2(O)CC[C@@]3(O)[C@@H]4[C@@H](O)C=C5C=CCC(=O)[C@]5(C)[C@H]4CC[C@]23C)C1 [Compound 9, (20S,22R)-7β,14α,17β,20-tetrahydroxy-1-oxowitha-3,5,24-trienolide]
- IC50 [3]: < 2000 nM
- IC50 at 72 h [1]: > 2000 nM

Compound: C[C@H]1C(=O)O[C@@H]([C@](C)(O)[C@H]2CC[C@@]3(O)[C@@H]4CC=C5CC=CC(=O)[C@]5(C)[C@H]4CC[C@]23C)[C@@H](O)[C@@H]1CO [Compound 10, (20S,22R)-14α,20,23β,28-tetrahydroxy-1-oxowitha-2,5-dienolide]
- IC50 at 72 h [2]: > 5000 nM

Compound: C[C@H]1C[C@H]([C@](C)(O)[C@]2(O)CC[C@@]3(O)[C@@H]4C[C@H]5O[C@]56CC=CC(=O)[C@]6(C)[C@H]4CC[C@]23C)OC(=O)[C@@H]1C [Compound 11, (20S,22R,24S,25R)-5β,6β-epoxy-14α,17β,20-trihydroxy-1-oxowitha-2-enolide]
- IC50 at 72 h [1]: > 2000 nM

Compound: CC1=C(C)C(=O)O[C@@H]([C@](C)(O)[C@]2(O)CC[C@@]3(O)[C@@H]4C[C@H]5O[C@]56[C@@H](O)C=CC(=O)[C@]6(C)[C@H]4CC[C@]23C)C1 [Compound 12, 4β-hydroxywithanolide E]
- IC50 at 72 h [1]: > 2000 nM
- Cytotoxic to cancer cell lines [4]: cytotoxic
- Inhibition of proliferation [5]: inhibit proliferation

Compound: CC1=C(C)C(=O)O[C@@H]([C@](C)(O)[C@]2(O)CC[C@@]3(O)[C@@H]4C[C@H]5O[C@]56CC=CC(=O)[C@]6(C)[C@H]4CC[C@]23C)C1 [Compound 13, withanolide E]
- Selectivity for renal carcinoma (ACHN) cells [6]: showed selectivity
- IC50 at 72 h [1]: > 2000 nM
- Cytotoxic to cancer cell lines [4]: cytotoxic
- Long-term survival of RC cells [7]: eliminate long-term survival

Compound: CC1=C(C)C(=O)O[C@@H]([C@](C)(O)C2=CC[C@@]3(O)[C@@H]4C[C@H]5O[C@]56[C@@H](O)C=CC(=O)[C@]6(C)[C@H]4CC[C@]23C)C1 [Compound 14, phyperunolide A]
- IC50 at 72 h [2]: > 5000 nM
- Cytotoxic to cancer cell lines [4]: cytotoxic

Compound: CO[C@H]1C=CC(=O)[C@]2(C)[C@H]3CC[C@]4(C)[C@](O)([C@@](C)(O)[C@H]5CC(C)=C(C)C(=O)O5)CC[C@@]4(O)[C@@H]3C[C@H]3O[C@]132 [Compound 15, withangulatin E]
- IC50 [3]: < 2000 nM
- IC50 at 72 h [1]: > 2000 nM

Compound: CO[C@]12CC=CC(=O)[C@]1(C)[C@H]1CC[C@]3(C)[C@](O)([C@@](C)(O)[C@H]4CC(C)=C(C)C(=O)O4)CC[C@@]3(O)[C@@H]1C[C@H]2O [Compound 16, withanolide S 5-methyl ether]
- IC50 at 72 h [2]: > 5000 nM

Compound: CC1=C(C)C(=O)O[C@@H]([C@](C)(O)[C@]2(O)CC[C@@]3(O)[C@@H]4C[C@H](Cl)[C@]5(O)[C@@H](O)C=CC(=O)[C@]5(C)[C@H]4CC[C@]23C)C1 [Compound 17, physalolactone]
- IC50 at 72 h [2]: > 5000 nM

Compound: CC1=C(C)C(=O)O[C@@H]([C@](C)(O)[C@]2(O)CC[C@@]3(O)[C@@H]4C[C@@H](O)[C@@]5(O)CC=CC(=O)[C@]5(C)[C@H]4CC[C@]23C)C1 [Compound 18, withanolide S]
- IC50 at 72 h [2]: > 5000 nM

Compound: CC1=C(C)C(=O)O[C@@H]([C@](C)(O)[C@]2(O)CC[C@@]3(O)[C@@H]4[C@@H](O)[C@H]5O[C@]56CC=CC(=O)[C@]6(C)[C@H]4CC[C@]23C)C1 [Compound 19, withaperuvin L]
- IC50 at 72 h [1]: > 2000 nM

Compound: CC1=C(C)C(=O)O[C@@H]([C@](C)(O)[C@]2(O)CC[C@@]3(O)[C@@H]4CC=C5[C@@H](O)C=CC(=O)[C@]5(C)[C@H]4CC[C@]23C)C1 [Compound 20, physapruin A]
- Selectivity for renal carcinoma (ACHN) cells [6]: showed selectivity
- IC50 at 72 h [1]: > 2000 nM

Compound: CC1=C(CO)C[C@H]([C@](C)(O)[C@]2(O)CC[C@@]3(O)[C@@H]4CC=C5CC=CC(=O)[C@]5(C)[C@H]4CC[C@]23C)OC1=O [Compound 21, withaperuvin J]
- IC50 at 72 h [1]: > 2000 nM

Compound: CC1=C(C)C(=O)O[C@@H]([C@](C)(O)[C@]2(O)CC[C@@]3(O)[C@@H]4CC=C5CC=CC(=O)[C@]5(C)[C@H]4CC[C@]23C)C1 [Compound 22, withanolide F]
- IC50 at 72 h [1]: > 2000 nM

Compound: CC1=C(C)C(=O)O[C@@H]([C@](C)(O)[C@]2(O)CC[C@@]3(O)[C@@H]4C[C@H](Cl)[C@]5(O)CC=CC(=O)[C@]5(C)[C@H]4CC[C@]23C)C1 [Compound 23, 4-deoxyphysalolactone]
- IC50 at 72 h [2]: > 5000 nM

Compound: C[C@H]1C(=O)OC[C@H]1C[C@@H](O)[C@](C)(O)[C@]1(O)CC[C@@]2(O)[C@@H]3CC=C4CC=CC(=O)[C@]4(C)[C@H]3CC[C@]12C [Compound 24, perulactone B]
- IC50 at 72 h [2]: > 5000 nM

Compound: C[C@H]1C(=O)OC[C@H]1C[C@@H](O)[C@](C)(O)[C@@]1(O)CC[C@@]2(O)[C@@H]3CC=C4CC=CC(=O)[C@]4(C)[C@H]3CC[C@]12C [Compound 25, perulactone H]
- IC50 at 72 h [2]: > 5000 nM

Compound: CC(=O)OC[C@]12CC[C@H]3[C@@H](C[C@H]4O[C@]45CC=CC(=O)[C@]35C)[C@]1(O)CC[C@@]2(O)[C@@](C)(O)[C@H]1CC(C)=C(C)C(=O)O1 [Compound 26, Physachenolide C, reference compound]
- Enhancement of activity (26 vs 13) ([3]; LNCaP cells, acetoxylation at C-18): 3 fold
- Selectivity for renal carcinoma (ACHN) cells [6]: showed selectivity
- IC50 at 72 h [1]: > 2000 nM
- Activity for LNCaP cells [8]: selective and potent activity

Compound: CC1=C(C)C(=O)O[C@@H]([C@](C)(O)[C@]2(O)CC[C@@]3(O)[C@@H]4C[C@@H](O)[C@@]5(Cl)CC=CC(=O)[C@]5(C)[C@H]4CC[C@]23C)C1 [Compound 27, withanolide C, reference compound]
- Cytotoxic to cancer cell lines [4]: cytotoxic
